target: T1, Recombinant N-terminal GST tag full-length human HDAC8 (Homo sapiens, UniProt Q9BY41); experiment: HDAC8 probe binding assay, time resolved fluorescence (TRF); settings: fluorescein labeled pan-HDAC inhibitor probe, 16 hours incubation, compounds listed under IC50 range headings
T1 construct: Recombinant N-terminal GST tag full-length human HDAC8; purchased SignalChem H90-30G-1000; host or cells: Sf9 insect cells (baculovirus)
T1 sequence (Q9BY41 1-377): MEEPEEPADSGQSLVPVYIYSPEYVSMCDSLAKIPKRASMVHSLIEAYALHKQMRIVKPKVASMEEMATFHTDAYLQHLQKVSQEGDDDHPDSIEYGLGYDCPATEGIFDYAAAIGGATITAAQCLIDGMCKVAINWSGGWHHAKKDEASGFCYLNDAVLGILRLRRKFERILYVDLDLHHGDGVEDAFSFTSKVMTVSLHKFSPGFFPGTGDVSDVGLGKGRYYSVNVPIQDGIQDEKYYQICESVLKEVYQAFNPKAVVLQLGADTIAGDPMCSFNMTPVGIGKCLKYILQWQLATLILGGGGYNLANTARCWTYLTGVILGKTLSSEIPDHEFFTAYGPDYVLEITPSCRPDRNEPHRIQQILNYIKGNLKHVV
Protocol: The HDAC8 probe binding assay was performed using a time resolved fluorescence (TRF) assay format. Recombinant N-terminal GST tag full-length human HDAC8 was expressed and purified from baculovirus in Sf9 insect cells (SignalChem, #H90-30G-1000), Each assay was performed in 1536 black well microplates (Corning, #3936) in a final volume of 4 μL in assay buffer containing 50 mM HEPES (pH 7.5), 50 mM KCl, 50 mM NaCl, 0.5 mM GSH (L-Glutathione reduced, Sigma #G4251), 0.03% BGG (0.22 μM filtered, Sigma, #G7516-25G), and 0.01% Triton X-100 (Sigma, #T9284-10L). 20 nL of 10-point, 3-fold serial dilution in DMSO was pre-dispensed into respective wells of 1536 assay plates for a final test concentration range of 25 μM to 1.3 nM respectively. The final concentration in the assay of HDAC8 and probe (a fluorescein labeled pan-HDAC inhibitor) was 2.5 nM and 1.5 nM respectively. 2 μL of 2× probe and 2× anti-GST Terbium (Cisbio, #61GSTXLB) was added to assay plates followed by 2 μL of 2× HDAC8. Plates were incubated for 16 hours at room temperature before time resolved fluorescence was read on the Envision (Excitation at 340 nm, and Emission at 485 nm and 535 nm, Perkin Elmer).
Data from HDAC8 Assays were reported as percent inhibition (inh) compared with control wells based on the following equation: % inh=1−((FLU−AveLow)/(AveHigh−AveLow)) where FLU=measured time resolved fluorescence. AveLow=average time resolved fluorescence of no enzyme control (n=32). AveHigh=average time resolved fluorescence of DMSO control (n=32). IC50 values were determined by curve fitting of the standard 4 parameter logistic fitting algorithm included in the Activity Base software package: IDBS XE Designer Model205. Data is fitted using the Levenburg Marquardt algorithm.

Row | Structure (SMILES) | IC50 [nM]
1 | O=C(/C=C/c1ccccc1N1CCN(c2ccc(F)cc2)CC1=O)NO [Example I-504, (E)-3-(2-(4-(4-fluorophenyl)-2-oxopiperazin-1-yl)phenyl)-N-hydroxyacrylamide] | ≤ 1000
2 | Cn1cc(Oc2ccccc2C(=O)Nc2ccc(F)cc2/C=C/C(=O)NO)cn1 [Example I-558, N-{4-fluoro-2-[(1E)-2-(hydroxycarbamoyl)eth-1-en-1-yl]phenyl}-2-[(1-methyl-1H-pyrazol-4-yl)oxy]benzamide] | ≤ 1000
3 | O=C(/C=C/c1ccccc1N1CCN(c2ccc(F)cc2)C1=O)NO [Example I-501, (E)-3-(2-(3-(4-fluorophenyl)-2-oxoimidazolidin-1-yl)phenyl)-N-hydroxyacrylamide] | ≤ 1000
4 | CC1(C(=O)N2CC3(CCCN3c3ccccc3/C=C/C(=O)NO)C2)CCCCC1 [Example I-568, (E)-N-hydroxy-3-(2-(2-(1-methylcyclohexane-1-carbonyl)-2,5-diazaspiro[3.4]octan-5-yl)phenyl)acrylamide] | ≤ 1000
5 | O=C(/C=C/c1ccccc1N1CCC2(CCCN2C(=O)Cc2ccccc2)C1)NO (stereo not drawn) [Example I-579, (E)-N-hydroxy-3-(2-(1-(2-phenylacetyl)-1,7-diazaspiro[4.4]nonan-7-yl)phenyl)acrylamide] | 1000 to 100000
6 | O=C(/C=C/c1ccccc1N1CCCC12CN(C(=O)C1CCCC1)C2)NO [Example I-565, (E)-3-(2-(2-(cyclopentanecarbonyl)-2,5-diazaspiro[3.4]octan-5-yl)phenyl)-N-hydroxyacrylamide] | ≤ 1000
7 | COc1cnccc1Oc1ccccc1C(=O)Nc1ccccc1/C=C/C(=O)NO [Example I-553, N-{2-[(1E)-2-(hydroxycarbamoyl)eth-1-en-1-yl]phenyl}-2-[(3-methoxypyridin-4-yl)oxy]benzamide] | ≤ 1000
8 | CC(C)(C)C(=O)N1CC2(CCCN2c2ccccc2/C=C/C(=O)NO)C1 [Example I-569] | ≤ 1000
9 | CC(C)(C)OC(=O)N1CCCC12CN(c1ccccc1/C=C/C(=O)NO)C2 [Example I-550, tert-butyl (E)-2-(2-(3-(hydroxyamino)-3-oxoprop-1-en-1-yl)phenyl)-2,5-diazaspiro[3.4]octane-5-carboxylate] | ≤ 1000
10 | COc1cccc(Oc2ccccc2C(=O)Nc2ccccc2/C=C/C(=O)NO)c1 [Example I-552, N-{2-[(1E)-2-(hydroxycarbamoyl)eth-1-en-1-yl]phenyl}-2-(3-methoxyphenoxy)benzamide] | ≤ 1000
11 | COc1ccc(F)cc1Oc1ccccc1C(=O)Nc1ccccc1/C=C/C(=O)NO [Example I-551, 2-(5-fluoro-2-methoxyphenoxy)-N-{2-[(1E)-2-(hydroxycarbamoyl)eth-1-en-1-yl]phenyl}benzamide] | ≤ 1000
12 | COc1ccc(Oc2ccccc2C(=O)Nc2ccc(Cl)cc2/C=C/C(=O)NO)cc1 [Example I-573, N-{4-chloro-2-[(1E)-2-(hydroxycarbamoyl)eth-1-en-1-yl]phenyl}-2-(4-methoxyphenoxy)benzamide] | ≤ 1000
13 | O=C(/C=C/c1ccccc1N1CCC2(CCCN2C(=O)c2ccc(F)cc2)C1)NO (stereo not drawn) [Example I-575, (E)-3-(2-(1-(4-fluorobenzoyl)-1,7-diazaspiro[4.4]nonan-7-yl)phenyl)-N-hydroxyacrylamide] | ≤ 1000
14 | O=C(/C=C/c1cc(Cl)ccc1NC(=O)c1ccccc1Oc1ccc(F)cc1)NO [Example I-549, N-{4-chloro-2-[(1E)-2-(hydroxycarbamoyl)eth-1-en-1-yl]phenyl}-2-(4-fluorophenoxy)benzamide] | ≤ 1000
15 | O=C(/C=C/c1ccccc1N1CCCC12CN(C(=O)Cc1ccc(F)cc1)C2)NO [Example I-562] | ≤ 1000
16 | O=C(/C=C/c1ccccc1N1CCC2(CCCN2C(=O)CC(F)(F)F)C1)NO (stereo not drawn) [Example I-576, (E)-N-hydroxy-3-(2-(1-(3,3,3-trifluoropropanoyl)-1,7-diazaspiro[4.4]nonan-7-yl)phenyl)acrylamide] | ≤ 1000
17 | Cn1cc(Oc2ccccc2C(=O)Nc2ccccc2/C=C/C(=O)NO)cn1 [Example I-548, N-{2-[(1E)-2-(hydroxycarbamoyl)eth-1-en-1-yl]phenyl}-2-[(1-methyl-1H-pyrazol-4-yl)oxy]benzamide] | ≤ 1000
18 | O=C(/C=C/c1ccc(Cl)cc1NC(=O)c1ccccc1Oc1ccc(F)cc1)NO [Example I-564, N-{5-chloro-2-[(1E)-2-(hydroxycarbamoyl)eth-1-en-1-yl]phenyl}-2-(4-fluorophenoxy)benzamide] | ≤ 1000
19 | Cc1ccc(Oc2ccccc2C(=O)Nc2ccc(Cl)cc2/C=C/C(=O)NO)cn1 [Example I-560, N-{4-chloro-2-[(1E)-2-(hydroxycarbamoyl)eth-1-en-1-yl]phenyl}-2-[(6-methylpyridin-3-yl)oxy]benzamide] | ≤ 1000
20 | O=C(/C=C/c1ccccc1N1CCCC12CN(C(=O)CC(F)(F)F)C2)NO [Example I-566, (E)-N-hydroxy-3-(2-(2-(3,3,3-trifluoropropanoyl)-2,5-diazaspiro[3.4]octan-5-yl)phenyl)acrylamide] | ≤ 1000
21 | O=C(/C=C/c1c(Cl)cccc1NC(=O)c1ccccc1Oc1ccc(F)cc1)NO [Example I-563, N-{3-chloro-2-[(1E)-2-(hydroxycarbamoyl)eth-1-en-1-yl]phenyl}-2-(4-fluorophenoxy)benazmide] | ≤ 1000
22 | O=C(/C=C/c1cc(Cl)ccc1NC(=O)c1cccnc1Oc1ccccc1)NO [Example I-570, N-{4-chloro-2-[(1E)-2-(hydroxycarbamoyl)eth-1-en-1-yl]phenyl}-2-phenoxypyridine-3-carboxamide] | ≤ 1000
23 | O=C(/C=C/c1ccccc1N1CCN(c2ccc(Cl)c(C(F)(F)F)c2)CC1=O)NO [Example I-582, (E)-3-(2-(4-(4-chloro-3-(trifluoromethyl)phenyl)-2-oxopiperazin-1-yl)phenyl)-N-hydroxyacrylamide] | 1000 to 100000
24 | COc1cc(F)ccc1Oc1ccccc1C(=O)Nc1ccccc1/C=C/C(=O)NO [Example I-546, (E)-2-(4-fluoro-2-methoxyphenoxy)-N-(2-(3-(hydroxyamino)-3-oxoprop-1-en-1-yl)phenyl)benzamide] | ≤ 1000
25 | O=C(/C=C/c1ccccc1N1CCCC12CN(C(=O)c1ccc(F)cc1)C2)NO [Example I-554, (E)-3-(2-(2-(4-fluorobenzoyl)-2,5-diazaspiro[3.4]octan-5-yl)phenyl)-N-hydroxyacrylamide] | 1000 to 100000
26 | COc1ccc(Oc2ccccc2C(=O)Nc2ccccc2/C=C/C(=O)NO)cc1 [Example I-559] | ≤ 1000
27 | O=C(/C=C/c1ccccc1N1CCN(c2ccc(OC(F)(F)F)cc2)CC1=O)NO [Example I-503, (E)-N-hydroxy-3-(2-(2-oxo-4-(4-(trifluoromethoxy)phenyl)piperazin-1-yl)phenyl)acrylamide] | ≤ 1000
28 | O=C(/C=C/c1cc(F)ccc1NC(=O)c1ccccc1Oc1ccc(F)cc1)NO [Example I-555, N-{4-fluoro-2-[(1E)-2-(hydroxycarbamoyl)eth-1-en-1-yl]phenyl}-2-(4-fluorophenoxy)benzamide] | ≤ 1000
29 | O=C(/C=C/c1ccccc1N1CCCC12CN(C(=O)Cc1ccccc1)C2)NO [Example I-561, (E)-N-hydroxy-3-(2-(2-(2-phenylacetyl)-2,5-diazaspiro[3.4]octan-5-yl)phenyl)acrylamide] | ≤ 1000
30 | O=C(/C=C/c1ccccc1N1CCCC12CN(C(=O)C1CCCCC1)C2)NO [Example I-567, (E)-3-(2-(2-(cyclohexanecarbonyl)-2,5-diazaspiro[3.4]octan-5-yl)phenyl)-N-hydroxyacrylamide] | 1000 to 100000

Reference: patent US10508077B2 (FORMA Therapeutics, Inc., priority 2015, dated 2019)
